Measurements as given in ChEMBL document CHEMBL3301458, “MMV Malaria Box hERG screening”.
Active and inactive are the calls of the source. How the calls were made is not given here.

Columns and labels:
[1] = target: T1, hERG (Kv11.1, KCNH2) (Homo sapiens, UniProt Q12809); assay: in vitro
Description: MMV: Malaria Box compounds were tested for inhibition of the human ether a go-go related gene (hERG), Kv11.1 channel, using IonWorks 384-well patch clamp electrophysiology at 1.1uM (3 independent assay plates up to 12 cells per concentration).

[2] = target: T1, hERG (Kv11.1, KCNH2); assay: in vitro; remark: listed apart in the source
Description: MMV: Malaria Box compounds were tested for inhibition of the human ether a go-go related gene (hERG), Kv11.1 channel, using IonWorks 384-well patch clamp electrophysiology at 11.1uM (3 independent assay plates up to 12 cells per concentration).

T1 sequence (Q12809 whole entry): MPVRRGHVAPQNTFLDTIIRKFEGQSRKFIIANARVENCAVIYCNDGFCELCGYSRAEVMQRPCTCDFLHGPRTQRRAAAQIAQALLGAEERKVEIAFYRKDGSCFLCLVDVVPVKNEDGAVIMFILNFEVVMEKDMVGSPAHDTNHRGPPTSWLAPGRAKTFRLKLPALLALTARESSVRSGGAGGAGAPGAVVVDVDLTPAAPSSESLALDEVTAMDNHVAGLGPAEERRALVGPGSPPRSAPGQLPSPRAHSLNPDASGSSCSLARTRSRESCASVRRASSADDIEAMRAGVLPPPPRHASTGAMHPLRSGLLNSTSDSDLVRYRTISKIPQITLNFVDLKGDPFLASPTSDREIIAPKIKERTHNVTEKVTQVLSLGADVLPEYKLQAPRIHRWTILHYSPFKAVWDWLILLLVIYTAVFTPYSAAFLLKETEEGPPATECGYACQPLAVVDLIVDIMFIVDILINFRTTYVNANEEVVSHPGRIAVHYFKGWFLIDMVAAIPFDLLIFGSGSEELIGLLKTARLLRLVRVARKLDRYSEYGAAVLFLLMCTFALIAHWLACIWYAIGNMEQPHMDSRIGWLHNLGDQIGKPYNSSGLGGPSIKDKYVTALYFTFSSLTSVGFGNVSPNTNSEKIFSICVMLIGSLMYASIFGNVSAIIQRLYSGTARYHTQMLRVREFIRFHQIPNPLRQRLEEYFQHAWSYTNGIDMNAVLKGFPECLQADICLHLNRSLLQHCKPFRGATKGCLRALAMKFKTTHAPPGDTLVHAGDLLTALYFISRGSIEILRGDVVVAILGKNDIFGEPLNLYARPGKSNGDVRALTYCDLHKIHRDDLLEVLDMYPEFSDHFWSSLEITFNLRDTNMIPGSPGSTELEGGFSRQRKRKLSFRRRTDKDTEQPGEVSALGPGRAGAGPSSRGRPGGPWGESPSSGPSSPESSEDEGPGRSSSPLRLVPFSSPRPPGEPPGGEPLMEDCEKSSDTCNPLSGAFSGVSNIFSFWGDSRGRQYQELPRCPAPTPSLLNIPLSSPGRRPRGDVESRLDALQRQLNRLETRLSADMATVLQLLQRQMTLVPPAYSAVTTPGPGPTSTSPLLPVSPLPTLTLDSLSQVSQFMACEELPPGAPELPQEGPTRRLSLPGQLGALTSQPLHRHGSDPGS

| Compound | inhibition at 1.1 µM [1] [%] | inhibition at 11.1 µM [2] |
| --- | --- | --- |
| Cc1c(C)n(Cc2ccc(F)cc2)c2ccc(C(=O)NCc3ccco3)cc12 | -2 | 5% (inactive) |
| COc1ccc2sc(N(Cc3cccnc3)C(=O)c3ccc(C#N)cc3)nc2c1 | 14 | 82% (active) |
| Cc1cc(Nc2cccc(F)c2)nc(NCc2ccccc2)n1 | 11 | 73% (active) |
| CCN(CC)CCCNc1nc(-c2ccc(Cl)cc2)nc2ccccc12 | 8 | 94% (active) |
| COc1ccc(CN2CCN(Cc3ccccc3)CC2)c(O)c1 | 15 | 66% (active) |
| Cc1cc(C)c2nc(N3CCC(C(=O)NCCCN4CCC(N5CCCCC5)CC4)CC3)sc2c1 | 18 | 60% (active) |
| CCCn1c(=N)c(C(=O)NC2CCCCC2)cc2c(=O)n3cccc(C)c3nc21 | 63 | 105% |
| COc1ccc(CCn2c(=N)c(C(=O)NCc3cccnc3)cc3c(=O)n4cccc(C)c4nc32)cc1 | 19 | 14% (inactive) |
| COCCNC(=O)c1ccc(OC2CCN(Cc3ccc(F)c(F)c3)CC2)c(Cl)c1 | 7 | 68% (active) |
| CCN1CCN(c2c(C(=O)c3ccccc3)cnc3cc(OC)c(OC)cc23)CC1 | 36 | 40% |
| CN(C)c1ccc(-c2nc3cc(N)ccc3[nH]2)cc1 | 14 | 36% |
| Oc1ccc2ccccc2c1CNc1nc2ccccc2[nH]1 | -5 | 21% (inactive) |
| FC(F)(F)c1cccc(Nc2nc3ccccc3nc2Nc2cccc(C(F)(F)F)c2)c1 | -4 | 8% (inactive) |
| CCN(CC)CCNc1ccnc2cc3ccccc3cc12 | 9 | 6% (inactive) |
| CC1CCN(Cc2ccc(NC(=O)c3cc4ccc5cccnc5c4[nH]3)cc2)CC1 | 64 | 101% |
| CC(C)(C)CC(C)(C)NCC(O)COc1ccc2c(c1)CCC2 (stereo not given) | 8 | 62% (active) |
| COc1ccc(Nc2cc(C)nc(NCc3ccccc3)n2)cc1 | > 5 | 67% (active) |
| CC(C)(C)c1ccc2c(c1)CN(Cc1ccc(Cl)cc1)CO2 | 25 | 12% (inactive) |
| Cc1ccc(F)cc1NC(=O)c1cc(Cl)ccc1Nc1ccccc1 | 5 | 12% (inactive) |
| CCCCNc1nc(NC(C)(C)C)nc(NC(C)(C)C)n1 | -1 | 1% (inactive) |
| Cc1ccc2nc(C)cc(Nc3cccc(C(F)(F)F)c3)c2c1 | 48 | 106% (active) |
| CCN1CCN(c2cc(C)c3cc(NC(=O)c4ccc(OC)c(OC)c4)ccc3n2)CC1 | 15 | 63% (active) |
| N#Cc1nc(Cc2cccc3ccccc23)oc1N1CCN(C(c2ccccc2)c2ccccc2)CC1 | 15 | 13% (inactive) |
| CC1=C(CC(=O)c2cccc([N+](=O)[O-])c2)C(=O)c2ccccc2C1=O | 9 | 17% (inactive) |
| Cc1cc(N(C)C)nc(Nc2ccc(NC(=O)Nc3ccccc3)cc2)n1 | 2 | -1% (inactive) |

| Compound | inhibition at 1.1 µM [1] [%] | inhibition at 11.1 µM [2] |
| --- | --- | --- |
| CCn1c(SCC(=O)Nc2cc(C(F)(F)F)ccc2Cl)nc2ccccc2c1=O | -1 | 34% |
| CN1CCN(c2ccc(Nc3c4ccccc4nc4ccccc34)cc2)CC1 | 24 | 75% (active) |
| COc1ccc(C2Sc3ccccc3N=C3C2=C(O)c2ccccc23)cc1 (stereo not given) | -2 | 26% |
| CN(C)CCNc1cc(-c2ccccc2)nc2ccccc12 | 20 | 66% (active) |
| CC(O)(c1ccc(Cl)cc1)C(CN1CCCCC1)c1ccccc1 (stereo not given) | 40 | 84% (active) |
| COc1cccc(C2(C)Nc3ccccc3-c3nc4ccccc4n32)c1 (stereo not given) | 10 | 18% (inactive) |
| N=c1c2ccccc2nnn1-c1cccc(C(F)(F)F)c1 | -3 | 11% (inactive) |
| COc1ccc(C(=O)C2CC2c2ccc(Cl)cc2)cc1 (stereo not given) | -6 | 13% (inactive) |
| O=C(Cc1ccccc1)NC(c1ccc(Cl)cc1)c1c(O)ccc2ccccc12 (stereo not given) | -2 | -1% (inactive) |
| c1ccc(-c2ccc(-c3nc4ccccc4[nH]3)cc2)cc1 | -2 | -8% (inactive) |
| Cc1cc(NC(=O)c2cccc(C(F)(F)F)c2)n(-c2nc(-c3ccc4c(c3)OCO4)cs2)n1 | 12 | 6% (inactive) |
| O=C1c2ccccc2-c2nnc(-c3ccc(Br)cc3)cc21 | -3 | 2% (inactive) |
| CC1CCCCN1CCCNC(=O)c1ccc2c(c1)sc1nc(-c3ccc(F)cc3)cn12 (stereo not given) | 64 | 81% |
| CC(C)(C)C(=O)Nc1ccc(C(=O)Nc2cccc(-c3nc4ccccc4[nH]3)c2)cc1 | 8 | 40% |
| Cc1cc(NC(=O)c2ccc(-c3ccccc3)cc2)no1 | -2 | 12% (inactive) |
| CC(C)CNC(=O)c1c(N)n(CCc2ccccc2F)c2nc3ccccc3nc12 | 17 | -11% (inactive) |
| CCOC(=O)C1CCN(C(=O)CN2C(=O)c3ccccc3C2c2c[nH]c3ccccc23)CC1 (stereo not given) | -9 | 18% (inactive) |
| Cc1sc2ncnc(Sc3nc4ccccc4[nH]3)c2c1C | 8 | 16% (inactive) |
| COc1ccc(C2=C(c3ccc(OC)cc3)C3(c4ccccc4)C(=O)C2(c2ccccc2)C2C(=O)N(c4ccc(C)cc4)C(=O)C23)cc1 (stereo not given) | -8 | 6% (inactive) |
| CCN(Cc1ccccc1)C1CCN(Cc2cc(Br)ccc2O)CC1 | 18 | 96% (active) |
| CSC1=NC(=Nc2c(C)cccc2C)C2(CCC(C(C)(C)C)CC2)N1c1ccc(Cl)cc1 (stereo not given) | -5 | 5% (inactive) |
| COc1ccc(C(O)(CCC(C)C)C(CN2CCOCC2)c2ccc(Cl)cc2)cc1 (stereo not given) | 4 | 109% (active) |
| Cc1ccc(OCCCCCCNCCO)c(C)c1 | -6 | 21% (inactive) |
| COc1ccc(C(=O)Nc2ccc3nc(N4CCCCC4)cc(C)c3c2)cc1OC | 63 | 96% |
| COc1ccc(NC(=O)C2c3ccccc3C(=O)N(CC(C)C)C2c2cccs2)cc1 (stereo not given) | 7 | 18% (inactive) |

| Compound | inhibition at 1.1 µM [1] [%] | inhibition at 11.1 µM [2] |
| --- | --- | --- |
| CCOc1cccc(C(=O)Nc2ccc(-c3nc4ccccc4[nH]3)cc2)c1 | 0 | -7% (inactive) |
| O=C(Nc1ccc(CN2CCOCC2)cc1)c1ccc(-c2ccc(Br)cc2)o1 | 42 | 98% (active) |
| CCCCc1c(CCC)c(=N)c2ccccc2n1C | 29 | 74% (active) |
| COc1cccc(C(=O)NC(c2ccc(C)cc2)c2cc(Cl)c3cccnc3c2O)c1 (stereo not given) | 4 | -6% (inactive) |
| O=C(NCc1ccco1)C1CCN(S(=O)(=O)c2ccc(Cl)cc2)CC1 | 11 | 38% |
| CCOc1ccc(N2C(N)=NC(N)=NC2(C)C)cc1 | 12 | 6% (inactive) |
| c1ccc2c(NCCc3c[nH]c4ccccc34)c3ccccc3nc2c1 | 64 | 109% |
| FC(F)(F)c1cccc(Nc2nc(-c3ccccc3)nc3ncccc23)c1 | -8 | 0% (inactive) |
| COc1cccc(C=Cc2nc(=O)c3ccccc3o2)c1OC | -3 | -4% (inactive) |
| Cc1cc(C)cc(Nc2cc(C)nc3nc(C(F)(F)F)nn23)c1 | 20 | 40% |
| Oc1ccc(C(=C(Cl)Cl)c2ccc(O)cc2)cc1 | 7 | 15% (inactive) |
| COc1ccc(-n2ccnc2SCC(=O)Nc2cc(C)ccc2C)c(OC)c1 | 5 | 29% |
| Cc1ccc(Nc2nc(NCCO)c3ccccc3n2)cc1C | > 12 | 81% (active) |
| O=c1c2c([nH]c3ccccc13)CCCC2 | 4 | 6% (inactive) |
| c1ccc(CNc2nc(Nc3ccccc3)nc3ccccc23)cc1 | 17 | 69% (active) |
| COc1ccc(C=C2SC(Nc3ccc(F)cc3)=NC2=O)c(OC)c1 | 44 | 96% (active) |
| COc1cc(CNCCc2ccc(Cl)cc2)cc(OC)c1O | 16 | 59% (active) |
| O=c1nc(C=Cc2ccc(Br)cc2)oc2ccccc12 | 8 | 16% (inactive) |
| CCOc1ccccc1CNC(=O)C1c2ccccc2C(=O)N(CC(C)C)C1c1cccs1 (stereo not given) | 12 | 84% (active) |
| Clc1ccc2[nH]c3c(NCCCN4CCOCC4)ncnc3c2c1 | 29 | 89% (active) |
| CN(C)c1ccc(C=Cc2nc(=O)c3ccccc3o2)cc1 | 2 | 0% (inactive) |
| CCCCNCC(O)(c1ccc(Cl)cc1)c1ccc(Cl)cc1 | 30 | 95% (active) |
| Clc1ccc2c(N3CCCC3)ccnc2c1 | 38 | 83% (active) |
| CCC(C)NCC(O)(c1ccc(Cl)cc1)c1ccc(Cl)cc1 (stereo not given) | 24 | 89% (active) |
| CCCCCCC(O)(c1ccc(F)cc1)C(CN1CCOCC1)c1ccccc1 (stereo not given) | 0 | 71% (active) |
